From patent US11414424B2, “Cardiac sarcomere inhibitors” (Cytokinetics, Inc., priority 2018, dated 2022)

Each molecule was assayed on bovine cardiac myofibrils (assay: Myofibril assay: PK/LDH-coupled steady-state ATPase activity of skinned bovine cardiac myofibrils). Conditions: Ca2+ activating to 75% of maximal rate.
Format: biochemical
Summary of the method: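 Steady-state ATPase of detergent-skinned bovine left-ventricular myofibrils (1 mg/mL), PK/LDH-coupled NADH read at 340 nm, in PIPES/MgCl2 buffer pH 6.8 with 50 μM ATP, 0.6 mM EGTA and CaCl2 set for 50% or 75% activation. Inhibition of activity measured.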

| SMILES | CDMF75 IC15 |
| --- | --- |
| Cc1cnc(N2CC3(C2)C(=O)N(C(C)C)CC(=O)N3Cc2ccc(Cl)cc2)s1 [Compound 44, 5-(4-chlorobenzyl)-8-isopropyl-2-(5-methyl-thiazol-2-yl)-2,5,8-triazaspiro[3.5]nonane-6,9-dione] | 2.4 µM |
| Cc1nnc(N2CC3(C2)C(=O)N(C(C)C)CC(=O)N3Cc2ccc(Cl)cc2)o1 [Compound 45, 5-(4-chlorobenzyl)-8-isopropyl-2-(5-methyl-1,3,4-oxadiazol-2-yl)-2,5,8-triazaspiro[3.5]-nonane-6,9-dione] | 12.8 µM |
| CC(C)N1CC(=O)N(Cc2ccc(C(F)(F)F)cc2)C2(CN(c3ccccn3)C2)C1=O [Compound 46, 8-isopropyl-2-(pyridin-2-yl)-5-(4-(trifluoromethyl)-benzyl)-2,5,8-triazaspiro-[3.5]nonane-6,9-dione] | 0.9 µM |
| CC(C)N1CC(=O)N(Cc2ccc(Cl)cc2)C2(CN(c3nc4c(s3)COCC4)C2)C1=O [Compound 47, 5-(4-chlorobenzyl)-2-(6,7-dihydro-4H-pyrano[4,3-d]thiazol-2-yl)-8-isopropyl-2,5,8-triazaspiro[3.5]-nonane-6,9-dione] | 3.7 µM |
| CC(C)N1CC(=O)N(Cc2ccc(C(F)(F)F)cc2)C2(CN(c3cc[nH]c(=O)c3)C2)C1=O [Compound 48, 8-isopropyl-2-(2-oxo-1,2-dihydropyridin-4-yl)-5-(4-(trifluoromethyl)benzyl)-2,5,8-triazaspiro[3.5]-nonane-6,9-dione] | 1.6 µM |
| Cc1cc(N2CC3(C2)C(=O)N(C(C)C)CC(=O)N3Cc2ccc(Cl)cc2)cc(C)n1 [Compound 49, 5-(4-chlorobenzyl)-2-(2,6-dimethylpyridin-4-yl)-8-isopropyl-2,5,8-triazaspiro[3.5]nonane-6,9-dione] | 9.3 µM |
| CC(C)N1CC(=O)N(Cc2ccc(Cl)cc2)C2(CN(c3ccc(Cl)nn3)C2)C1=O [Compound 50, 5-(4-chlorobenzyl)-2-(6-chloropyridazin-3-yl)-8-isopropyl-2,5,8-triazaspiro[3.5]nonane-6,9-dione] | 5.8 µM |
| COc1ccc(N2CC3(C2)C(=O)N(C(C)C)CC(=O)N3Cc2ccc(Cl)cc2)nn1 [Compound 51, 5-(4-chlorobenzyl)-8-isopropyl-2-(6-methoxypyridazin-3-yl)-2,5,8-triazaspiro-[3.5]nonane-6,9-dione] | 5.7 µM |
| CC(C)N1CC(=O)N(Cc2ccc(Cl)cc2)C2(CN(c3ccc(=O)[nH]n3)C2)C1=O [Compound 52, 5-(4-chlorobenzyl)-8-isopropyl-2-(6-oxo-1,6-dihydropyridazin-3-yl)-2,5,8-triazaspiro[3.5]-nonane-6,9-dione] | 17.8 µM |
| CC(C)N1CC(=O)N(Cc2ccc(Cl)cc2)C2(CN(c3ccc(C(F)(F)F)nn3)C2)C1=O [Compound 53, 5-(4-chlorobenzyl)-8-isopropyl-2-(6-(trifluoromethyl)pyridazin-3-yl)-2,5,8-triazaspiro-[3.5]nonane-6,9-dione] | 14.7 µM |
| CC(C)N1CC(=O)N(Cc2ccc(Cl)cc2)C2(CN(c3ccc(C(N)=O)nn3)C2)C1=O [Compound 54, 6-(5-(4-chlorobenzyl)-8-isopropyl-6,9-dioxo-2,5,8-triazaspiro[3.5]-nonan-2-yl)pyridazine-3-carboxamide] | 7.8 µM |
| Cc1ccc(N2CC3(C2)C(=O)N(C(C)C)CC(=O)N3Cc2ccc(Cl)cc2)nn1 [Compound 55, 5-(4-chlorobenzyl)-8-isopropyl-2-(6-methylpyridazin-3-yl)-2,5,8-triazaspiro[3.5]-nonane-6,9-dione] | 6.7 µM |
| CC(C)N1CC(=O)N(Cc2ccc(Cl)cc2)C2(CN(c3cnc(Cl)cn3)C2)C1=O [Compound 56, 5-(4-chlorobenzyl)-2-(5-chloropyrazin-2-yl)-8-isopropyl-2,5,8-triazaspiro[3.5]nonane-6,9-dione] | 18.3 µM |
| CCN1CC(=O)N(Cc2ccc(C(F)(F)F)cc2)C2(CN(c3ccc(C#N)cn3)C2)C1=O [Compound 57, 6-(8-ethyl-6,9-dioxo-5-(4-(trifluoromethyl)benzyl)-2,5,8-triazaspiro[3.5]-nonan-2-yl)nicotinonitrile] | 33.3 µM |
| N#Cc1ccc(N2CC3(C2)C(=O)N(C2CCCC2)CC(=O)N3Cc2ccc(C(F)(F)F)cc2)nc1 [Compound 58, 6-(8-cyclopentyl-6,9-dioxo-5-(4-(trifluoromethyl)benzyl)-2,5,8-triazaspiro[3.5]-nonan-2-yl)nicotinonitrile] | 4.1 µM |
| CC(C)CN1CC(=O)N(Cc2ccc(C(F)(F)F)cc2)C2(CN(c3ccc(C#N)cn3)C2)C1=O [Compound 59, 6-(8-isobutyl-6,9-dioxo-5-(4-(trifluoromethyl)benzyl)-2,5,8-triazaspiro[3.5]-nonan-2-yl)nicotinonitrile] | 23.4 µM |
| CC(C)N1CC(=O)N(Cc2ccc(Cl)cc2)C2(CN(c3cc(Cl)cnn3)C2)C1=O [Compound 60, 5-(4-chlorobenzyl)-2-(5-chloropyridazin-3-yl)-8-isopropyl-2,5,8-triazaspiro[3.5]nonane-6,9-dione] | 14.3 µM |
| CC(C)N1CC(=O)N(Cc2ccc(Cl)cc2)C2(CN(c3cnnc(Cl)c3)C2)C1=O [Compound 61, 5-(4-chlorobenzyl)-2-(6-chloropyridazin-4-yl)-8-isopropyl-2,5,8-triazaspiro[3.5]nonane-6,9-dione] | 22.9 µM |
| N#Cc1ccc(N2CC3(C2)C(=O)N(C2CCCCC2)CC(=O)N3Cc2ccc(C(F)(F)F)cc2)nc1 [Compound 62, 6-(8-cydohexyl-6,9-dioxo-5-(4-(trifluoromethyl)-benzyl)-2,5,8-triazaspiro[3.5]nonan-2-yl)nicotinonitrile] | 1.8 µM |
| CC(C)N1CC(=O)N(Cc2ccc(Cl)cc2)C2(CN(c3ccc(C#N)cn3)C2)C1=O [Compound 63, 6-(5-(4-chlorobenzyl)-8-isopropyl-6,9-dioxo-2,5,8-triazaspiro[3.5]nonan-2-yl)nicotinonitrile] | 5.1 µM |
| COC(=O)N1CC2(C1)C(=O)N(C(C)C)CC(=O)N2Cc1ccc(Cl)cc1 [Compound 64, methyl 5-(4-chlorobenzyl)-8-isopropyl-6,9-dioxo-2,5,8-triazaspiro[3.5]-nonane-2-carboxylate] | 23.6 µM |
| CNC(=O)N1CC2(C1)C(=O)N(C(C)C)CC(=O)N2Cc1ccc(Cl)cc1 [Compound 65, 5-(4-chlorobenzyl)-8-isopropyl-N-methyl-6,9-dioxo-2,5,8-triazaspiro[3.5]nonane-2-carboxamide] | 9.8 µM |
| CC(C)N1CC(=O)N(Cc2ccc(Cl)cc2)C2(CN(C(=O)Nc3cnn(C)c3)C2)C1=O [Compound 66, 5-(4-chlorobenzyl)-8-isopropyl-N-(1-methyl-1H-pyrazol-4-yl)-6,9-dioxo-2,5,8-triazaspiro[3.5]-nonane-2-carboxamide] | 17.6 µM |
| CNC(=O)N1CC2(C1)C(=O)N(C(C)C)CC(=O)N2Cc1ccc(C(F)(F)F)cc1 [Compound 67, 8-isopropyl-N-methyl-6,9-dioxo-5-(4-(trifluoromethyl)benzyl)-2,5,8-triazaspiro[3.5]-nonane-2-carboxamide] | 6.0 µM |
